According to patent publication EP0863702B1, “FUNGICIDAL MIXTURE” (BASF AKTIENGESELLSCHAFT, priority 1995, dated 1997):

Legend:
Botrytis cinerea [1] = test: Efficacy against Botrytis cinerea on slices of green paprika fruit; type: in vivo; conditions: single active, Paprikaschoten-Scheiben, 4 Tage, 18°C
Description: Scheiben von grünen Paprikaschoten wurden mit wäßriger Wirkstoffaufbereitung, die 80 % Wirkstoff und 20 % Emulgiermittel in der Trockensubstanz enthielt, tropfnaß besprüht. 2 Stunden nach dem Antrocknen des Spritzbelages wurden die Fruchtscheiben mit einer Sporensuspension von Botrytis cinerea, die 1,7 x 10^6 Sporen pro ml einer 2 %igen Biomalzlösung enthielt, inokuliert. Die inokulierten Fruchtscheiben wurden anschließend in feuchten Kammern bei 18°C für 4 Tage aufgestellt. Dann erfolgte visuell die Auswertung der Botrytis-Entwicklung auf den befallenen Fruchtscheiben.
(§1) Die visuell ermittelten Werte für den Prozentanteil befallener Blattfläche wurden in Wirkungsgrade als % der unbehandelten Kontrolle umgerechnet. Wirkungsgrad 0 ist gleicher Befall wie in der unbehandelten Kontrolle, Wirkungsgrad 100 ist 0 % Befall. Die zu erwartenden Wirkungsgrade für Wirkstoffkombinationen wurden nach der Colby-Formel ermittelt (S. R. Colby "Calculating synergistic and antagonistic responses of herbicide combinations", Weeds 15, Seiten 20 bis 22 (1967)) und mit den beobachteten Wirkungsgraden verglichen.

Botrytis cinerea [2] = test: Efficacy against Botrytis cinerea on paprika seedlings (protective spray); type: in vivo; conditions: single active, Paprikasämlinge, 5 Tage, 22 bis 24°C
Description: Paprikasämlinge der Sorte "Neusiedler Ideal Elite" wurden, nachdem sich 4 bis 5 Blätter gut entwickelt hatten, mit wäßrigen Suspensionen, die 80 % Wirkstoff und 20 % Emulgiermittel in der Trockensubstanz enthielten, tropfnaß gespritzt. Nach dem Antrocknen des Spritzbelages wurden die Pflanzen mit einer Konidienaufschwemmung des Pilzes Botrytis cinerea besprüht und bei 22 bis 24°C in eine Kammer mit hoher Luftfeuchtigkeit gestellt. Nach 5 Tagen hatte sich die Krankheit auf den unbehandelten Kontrollpflanzen so stark entwickelt, daß die entstandenen Blattnekrosen den überwiegenden Teil der Blätter bedeckten.
as §1

SMILES	Wirkungsgrad (Botrytis cinerea [1]; 100 ppm in der Spritzbrühe)	Wirkungsgrad (Botrytis cinerea [2]; 25 ppm in der Spritzbrühe)	Wirkungsgrad (Botrytis cinerea [2]; 100 ppm in der Spritzbrühe)	Wirkungsgrad (Botrytis cinerea [1]; 25 ppm in der Spritzbrühe)
CC(C)(CCl)C(=O)Nc1ccc(O)c(Cl)c1Cl [(A)]	20 % der unbehandelten Kontrolle	40 % der unbehandelten Kontrolle	84 % der unbehandelten Kontrolle	
CC1(C(=O)Nc2ccc(O)c(Cl)c2Cl)CC2CCC1C2 (centres unmarked) [(B)]	25 % der unbehandelten Kontrolle	65 % der unbehandelten Kontrolle	80 % der unbehandelten Kontrolle	10 % der unbehandelten Kontrolle
CC1(C(=O)Nc2ccc(O)c(Cl)c2Cl)CCCCC1 [(C)]	25 % der unbehandelten Kontrolle	35 % der unbehandelten Kontrolle	70 % der unbehandelten Kontrolle	30 % der unbehandelten Kontrolle
